In brackets after ≈: the same amount, converted by molar mass.
Legend:
Trichophyton benhamiae = test: Antimicrobial activity against Trichophyton mentagrophytes fungus at a dose of 120 ug; type: functional
P388 = test: In vitro cytotoxic activity against mouse leukemia (P388 ) cell line; type: functional, cell-based
CHO [1] = test: In vitro cytotoxic activity against DNA-double strand break repair deficient Chinese Hamster Ovary (CHO) cell-line xrs-6; type: functional, cell-based; conditions: Cricetulus griseus
Pseudomonas aeruginosa = test: Antimicrobial activity against gram negative Pseudomonas aeruginosa at a dose of 120 ug; type: functional
HCT-116 = test: In vitro cytotoxic activity against human colon (HCT116) cell line; type: functional, cell-based
BSC-1 [2] = test: In vitro cytotoxic activity against non-malignant african green monkey kidney cell-line (BSC-1); ranges from 4.5-5 mm; type: functional, Cercopithecidae
MCF7 = test: In vitro cytotoxic activity against human breast (MCF-7) cell line; type: functional, cell-based
Amorphotheca resinae = test: Antimicrobial activity against Cladosporium resinae fungus at a dose of 120 ug; type: functional
Escherichia coli = test: Antimicrobial activity against gram negative Escherichia coli at a dose of 120 ug; type: functional
Bacillus subtilis = test: Antimicrobial activity against gram positive Bacillus subtilis at a dose of 120 ug; type: functional
CHO [3] = test: Hypersensitivity Factor(HF) against DNA-double strand break repair deficient Chinese Hamster Ovary (CHO) cell-line xrs-6 versus wild type BR1(IC50 BRI/IC50 xrs-6); type: functional, Cricetulus griseus
Candida albicans [4] = test: Antimicrobial activity against Candida albicans fungus at a dose of 120 microg; type: functional
CHO [5] = test: Hypersensitivity Factor (HF2) towards DNA-double strand break repair deficient Chinese Hamster Ovary (CHO) cell-line EM9 versus wild type BR1([…]); type: functional, Cricetulus griseus
CHO [6] = test: In vitro cytotoxic activity towards DNA-double strand break repair deficient Chinese Hamster Ovary (CHO) cell-line EM9; type: functional, cell-based; conditions: Cricetulus griseus
Candida albicans [7] = test: Minimum inhibitory concentration against Candida albicans fungus at a dose of 120 ug; type: functional
Candida albicans [8] = test: Antimicrobial activity against Candida albicans fungus at a dose of 120 ug; type: functional
CHO [9] = test: Hypersensitivity Factor(HF) towards DNA-double strand break repair deficient Chinese Hamster Ovary (CHO) cell-line xrs-6 versus wild type BR1(IC50 BRI/IC50 xrs-6); type: functional, Cricetulus griseus
CHO [10] = test: In vitro cytotoxic activity against DNA-double strand break repair deficient Chinese Hamster Ovary (CHO) cell-line EM9; type: functional, cell-based; conditions: Cricetulus griseus
Candida albicans [11] = test: Minimum inhibitory concentration against Candida albicans fungus at a dose of 120 microg; type: functional
BSC-1 [12] = test: In vitro cytotoxic activity against non-malignant african green monkey kidney cell-line (BSC-1); ranges from 3.5-4.5 mm; type: functional, Cercopithecidae

MIC (Candida albicans [7]) [µg/mL] | MIC (Candida albicans [11]) [µg/mL] | Structure (SMILES) | Excess zone radius (Trichophyton benhamiae) [mm] | IC50 (P388) [nM] | IC50 (CHO [1]) [nM] | Excess zone radius (Pseudomonas aeruginosa) [mm] | IC50 (HCT-116) [nM] | Excess zone radius (BSC-1 [2]) [mm] | IC50 (MCF7) [nM] | Excess zone radius (Amorphotheca resinae) [mm] | Excess zone radius (Escherichia coli) [mm] | Excess zone radius (Bacillus subtilis) [mm] | HF (CHO [3]) | Excess zone radius (Candida albicans [4]) [mm] | HF2 (CHO [5]) | IC50 (CHO [6]) [nM] | Excess zone radius (Candida albicans [8]) [mm] | HF (CHO [9]) | IC50 (CHO [10]) [nM] | Excess zone radius (BSC-1 [12]) [mm]
 |  | O=C1c2cccnc2-c2nccc3c2c1nc1ccccc13 [ASCIDIDEMIN] | 0 | 400 | 30 | 0 | 300 | 4.5 | 300 | 10 | 10 | 14 | 10 | 11 | 1 | 300 |  |  |  | 
25 (≈ 91.5 µM) |  | Cc1c2c(nc3ccccc13)C(=O)c1ccccc1C2=O | 0 | 39000 |  | 0 |  |  |  | 0 | 0 | 3 |  |  |  |  |  |  |  | 
 | 0.39 (≈ 1.38 µM) | O=C1c2ccccc2-c2nccc3c2c1nc1ccccc13 [BENZOSAMPANGINE] | 10 | 1600 | 18000 | 0 | > 350000 |  | > 350000 | 0 | 0 | 8 |  |  | 0.2 |  | 12 | 1 | 18000 | 
 |  | Cc1c2c(nc3ccccc13)C(=O)c1cccnc1C2=O | 0 | 56000 |  | 0 |  |  |  | 6 | 0 | 10 |  |  |  |  | 1 |  |  | 3.5
